The values below come from the supplement of paper PMC10307832.

Holding throughout (experiment): relative viability (nuclei count vs DMSO), 5 days (fraction); higher = more cells survive
Compound in assay [1]: C1CC1C(=O)NC2=NNC3=C2C=CC(=C3)C4=CC(=CC=C4)C(=O)NC5CC5 [XMD13-2] + Cc1cc(Nc2cc(N3CCN(C)CC3)nc(Sc3ccc(NC(=O)C4CC4)cc3)n2)n[nH]1 [Tozasertib] (partner 0.1 µM)
The procedure, abridged:
(§1)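 Lung cancer cell lines in 1536-well plates were dosed by pin tool the day after seeding, either with one drug alone or with a fixed anchor-drug dose plus five library-drug doses (not always all listed) in √10 steps. After 5 days, cells were fixed and their nuclei stained in one step (final 0.05% Triton X-100, 1% formaldehyde, 1 ug/ml Hoechst), then counted on 4× images. Relative viability is the nuclei count in treated wells divided by that in vehicle wells. Values are medians of duplicate plates.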

Compound in assay [2]: Cc1nc(Nc2ncc(C(=O)Nc3c(C)cccc3Cl)s2)cc(N2CCN(CCO)CC2)n1 [Dasatinib] + Cc1cc(Nc2cc(N3CCN(C)CC3)nc(Sc3ccc(NC(=O)C4CC4)cc3)n2)n[nH]1 [Tozasertib] (partner 0.1 µM)
The method, boiled down:
as §1

Compound in assay [3]: Cc1nc(Nc2ncc(C(=O)Nc3c(C)cccc3Cl)s2)cc(N2CCN(CCO)CC2)n1 [Dasatinib] + Cc1nc(NC(=O)N2CCC[C@H]2C(N)=O)sc1-c1ccnc(C(C)(C)C(F)(F)F)c1 [Alpelisib] (partner 2 µM)
The method, boiled down:
as §1

Compound in assay [4]: C1CC1C(=O)NC2=NNC3=C2C=CC(=C3)C4=CC(=CC=C4)C(=O)NC5CC5 [XMD13-2] + COc1cccc2cc(-c3nc([C@H]4CC[C@H](C(=O)O)CC4)n4ncnc(N)c34)[nH]c12 [OSI-027] (partner 0.5 µM)
The procedure, abridged: as §1

Consider NCI-H1944, for which the relative viability stood at 0.275 in assay [1] (first compound 0.05 µM); 0.243 in assay [1] (first compound 0.1581 µM); 0.229 in assay [1] (first compound 0.5 µM); 0.239 in assay [1] (first compound 1.581 µM); 0.221 in assay [1] (first compound 5 µM); 0.259 in assay [2] (first compound 0.005 µM). Also, the relative viability in assay [2] (first compound 0.01581 µM) is 0.223; in assay [2] (first compound 0.05 µM) it was 0.201; in assay [2] (first compound 0.1581 µM), 0.111; in assay [2] (first compound 0.5 µM) it was 0.104; in assay [3] (first compound 0.005 µM) it was 0.781; in assay [3] (first compound 0.01581 µM) it was 0.725. Further, the relative viability is 0.575 in assay [3] (first compound 0.05 µM); 0.289 in assay [3] (first compound 0.1581 µM); 0.203 in assay [3] (first compound 0.5 µM); 0.499 in assay [4] (first compound 0.05 µM); 0.395 in assay [4] (first compound 0.1581 µM); 0.362 in assay [4] (first compound 0.5 µM). Besides, the values for the relative viability in assay [4] (first compound 1.581 µM) and in assay [4] (first compound 5 µM) were 0.471 and 0.43, respectively.
In the case of HOP-62, the relative viability amounted to 0.363 in assay [1] (first compound 0.05 µM); 0.418 in assay [1] (first compound 0.1581 µM); 0.399 in assay [1] (first compound 0.5 µM); 0.393 in assay [1] (first compound 1.581 µM); 0.271 in assay [1] (first compound 5 µM); 0.387 in assay [2] (first compound 0.005 µM). Further, the relative viability in assay [2] (first compound 0.01581 µM) came out at 0.372; in assay [2] (first compound 0.05 µM) it was 0.393; in assay [2] (first compound 0.1581 µM), 0.315; in assay [2] (first compound 0.5 µM) it was 0.242; in assay [3] (first compound 0.005 µM), 1.27; in assay [3] (first compound 0.01581 µM), 1.02. Moreover, the relative viability stood at 0.838 in assay [3] (first compound 0.05 µM); 0.679 in assay [3] (first compound 0.1581 µM); 0.272 in assay [3] (first compound 0.5 µM); 0.998 in assay [4] (first compound 0.05 µM); 0.896 in assay [4] (first compound 0.1581 µM); 0.783 in assay [4] (first compound 0.5 µM). In addition, the relative viability in assay [4] (first compound 1.581 µM) came out at 0.895; in assay [4] (first compound 5 µM), 0.792.
For the cell line NCI-H2347, the relative viability in assay [1] (first compound 0.05 µM) is 0.559; in assay [1] (first compound 0.1581 µM), 0.577; in assay [1] (first compound 0.5 µM), 0.727; in assay [1] (first compound 1.581 µM) it was 0.487; in assay [1] (first compound 5 µM), 0.517; in assay [2] (first compound 0.005 µM), 0.56. Besides, the relative viability in assay [2] (first compound 0.01581 µM) was determined as 0.454; in assay [2] (first compound 0.05 µM), 0.363; in assay [2] (first compound 0.1581 µM), 0.238; in assay [2] (first compound 0.5 µM), 0.263; in assay [3] (first compound 0.005 µM) it was 0.845; in assay [3] (first compound 0.01581 µM) it was 0.817. Besides, the relative viability in assay [3] (first compound 0.05 µM) turned out to be 0.783; in assay [3] (first compound 0.1581 µM) it was 0.327; in assay [3] (first compound 0.5 µM), 0.34; in assay [4] (first compound 0.05 µM) it was 0.394; in assay [4] (first compound 0.1581 µM), 0.455; in assay [4] (first compound 0.5 µM), 0.426. In addition, the relative viability in assay [4] (first compound 1.581 µM) is 0.444; in assay [4] (first compound 5 µM), 0.413.
Take NCI-H2087: the relative viability in assay [1] (first compound 0.05 µM) amounted to 0.264; in assay [1] (first compound 0.1581 µM), 0.239; in assay [1] (first compound 0.5 µM) it was 0.268; in assay [1] (first compound 1.581 µM), 0.223; in assay [1] (first compound 5 µM) it was 0.207; in assay [2] (first compound 0.005 µM) it was 0.289. The relative viability was determined as 0.21 in assay [2] (first compound 0.01581 µM); 0.246 in assay [2] (first compound 0.05 µM); 0.185 in assay [2] (first compound 0.1581 µM); 0.113 in assay [2] (first compound 0.5 µM); 0.988 in assay [3] (first compound 0.005 µM); 0.957 in assay [3] (first compound 0.01581 µM). The relative viability in assay [3] (first compound 0.05 µM) came to 1.34; in assay [3] (first compound 0.1581 µM) it was 1.01; in assay [3] (first compound 0.5 µM), 0.613; in assay [4] (first compound 0.05 µM) it was 0.716; in assay [4] (first compound 0.1581 µM) it was 0.69; in assay [4] (first compound 0.5 µM), 0.482. Further, the figures for the relative viability in assay [4] (first compound 1.581 µM) and in assay [4] (first compound 5 µM) were 0.565 and 0.489, respectively.
With EPLC-272H, the relative viability in assay [1] (first compound 0.05 µM) stood at 0.228; in assay [1] (first compound 0.1581 µM) it was 0.289; in assay [1] (first compound 0.5 µM) it was 0.262; in assay [1] (first compound 1.581 µM) it was 0.269; in assay [1] (first compound 5 µM) it was 0.136; in assay [2] (first compound 0.005 µM), 0.254. The relative viability in assay [2] (first compound 0.01581 µM) was found to be 0.282; in assay [2] (first compound 0.05 µM), 0.222; in assay [2] (first compound 0.1581 µM) it was 0.137; in assay [2] (first compound 0.5 µM), 0.122; in assay [3] (first compound 0.005 µM) it was 1.08; in assay [3] (first compound 0.01581 µM), 0.913. Further, the relative viability is 1.02 in assay [3] (first compound 0.05 µM); 0.777 in assay [3] (first compound 0.1581 µM); 0.244 in assay [3] (first compound 0.5 µM); 0.313 in assay [4] (first compound 0.05 µM); 0.257 in assay [4] (first compound 0.1581 µM); 0.281 in assay [4] (first compound 0.5 µM). The relative viability was found to be 0.238 in assay [4] (first compound 1.581 µM) and 0.247 in assay [4] (first compound 5 µM).
As for LXF-289, the relative viability in assay [1] (first compound 0.05 µM) is 0.232; in assay [1] (first compound 0.1581 µM), 0.195; in assay [1] (first compound 0.5 µM), 0.194; in assay [1] (first compound 1.581 µM) it was 0.208; in assay [1] (first compound 5 µM), 0.177; in assay [2] (first compound 0.005 µM), 0.193. For the same cell line, the relative viability is 0.0886 in assay [2] (first compound 0.01581 µM); 0.0932 in assay [2] (first compound 0.05 µM); 0.0636 in assay [2] (first compound 0.1581 µM); 0.0438 in assay [2] (first compound 0.5 µM); 1.05 in assay [3] (first compound 0.005 µM); 1.05 in assay [3] (first compound 0.01581 µM). In addition, the relative viability was 0.666 in assay [3] (first compound 0.05 µM); 0.154 in assay [3] (first compound 0.1581 µM); 0.109 in assay [3] (first compound 0.5 µM); 0.874 in assay [4] (first compound 0.05 µM); 0.761 in assay [4] (first compound 0.1581 µM); 0.829 in assay [4] (first compound 0.5 µM). In addition, the figures for the relative viability in assay [4] (first compound 1.581 µM) and in assay [4] (first compound 5 µM) were 0.697 and 0.867, respectively.
